Assay results: patent publication US20240175865A1, “IMPROVED PROCESSES FOR RATIONALLY-DESIGNING AND PRODUCING BIOMOLECULES” (priority 2020, published 2024)
Read-outs that look alike come from different tables or passages of the source.

How the values were obtained:
[1] = molecular target: T1, Escherichia coli EF-Tu, unmodified (SEQ ID NO: 3) (Escherichia coli, UniProt P0CE47); assay: Nucleotide dissociation rate, stopped-flow, unmodified EF-Tu; assay type: binding; details: 20° C., TAKM7
T1 construct: His6 tag (C-terminal SHHHHHH in the listing) (C)

[2] = molecular target: Streptococcus pneumoniae MalX variant E312C, MDCC conjugate (parent MalX SEQ ID NO: 1) (Streptococcus pneumoniae, UniProt P59213, E319C); assay type: binding; details: 1 μM biosensor
[3] = molecular target: Streptococcus pneumoniae MalX variant A174C, MDCC conjugate (parent MalX SEQ ID NO: 1) (Streptococcus pneumoniae, UniProt P59213, A181C); assay type: binding; details: 1 μM biosensor
[4] = molecular target: Streptococcus pneumoniae MalX, unlabeled protein (SEQ ID NO: 1); details: unlabeled protein (ABBOTT et al. 2010); read-out: measured affinity (KD); cited from earlier work
[5] = molecular target: T2, Streptococcus pneumoniae MalX variant T243C, MDCC conjugate (parent MalX SEQ ID NO: 1) (Streptococcus pneumoniae serotype 4, UniProt P59213, I417L/S91N/T250C); assay: biochemical; assay type: binding
T2 construct: made in house; host or cells: Escherichia coli BL21(DE3) gold

[6] = system: Yersinia enterocolitica TogB, unmodified protein (SEQ ID NO: 2); details: isothermal titration calorimetry; cited from earlier work
[7] = system: Yersinia enterocolitica TogB, unmodified protein (SEQ ID NO: 2); details: UV-difference spectroscopy; cited from earlier work
[8] = molecular target: T2, Streptococcus pneumoniae MalX variant T243C, MDCC conjugate (parent MalX SEQ ID NO: 1); assay type: binding; details: 1 μM biosensor, 20 μM maltose

**Q.** With Nc1nc2c(ncn2[C@@H]2O[C@H](COP(=O)(O)OP(=O)(O)O)[C@@H](O)[C@H]2O)c(=O)[nH]1 [GDP, guanosine diphosphate] as the molecule, how does the koff ([1]; mantGDP complex mixed with excess GTP/GDP, read-out: GDP Dissociation Rate Koff) read?
**A.** 0.002 ± 0.001 s⁻¹

**Q.** With Nc1nc2c(ncn2[C@@H]2O[C@H](COP(=O)(O)OP(=O)(O)OP(=O)(O)O)[C@@H](O)[C@H]2O)c(=O)[nH]1 [GTP, guanosine triphosphate] as the molecule, how does the koff ([1]; mantGTP complex mixed with excess GTP/GDP, read-out: GTP Dissociation Rate koff) read?
**A.** 0.04 ± 0.01 s⁻¹

**Q.** For OC[C@H]1O[C@H](O[C@H]2[C@H](O)[C@@H](O)[C@@H](O[C@H]3[C@H](O)[C@@H](O)C(O)O[C@@H]3CO)O[C@@H]2CO)[C@H](O)[C@@H](O)[C@@H]1O (stereo partly shown) [M3, Maltotriose], which “fluorescence change upon binding M3” value ([2]; 20 μM M3) is on record?
**A.** did not show a fluorescence change

**Q.** And the “fluorescence change upon binding M3” value ([3]; 20 μM M3)?
**A.** did not show a fluorescence change

**Q.** What about the Kd [4] of the same molecule?
**A.** 0.8 ± 0.125 µM

**Q.** And the Kd [5]?
**A.** 0.6 ± 0.2 µM

**Q.** For O=C(O)[C@H]1O[C@H](O[C@@H]2[C@H](O)[C@@H](O)C(O)O[C@@H]2C(=O)O)[C@H](O)[C@@H](O)[C@H]1O (stereo partly shown) [digalUA, digalacturonic acid], which Kd [6] is on record?
**A.** 16 ± 2 µM

**Q.** And the Kd [7]?
**A.** 11.8 ± 0.5 µM

**Q.** Which “fluorescence change in presence of non-specific ligand (maltose)” value ([2]; 20 μM maltose) does the source give for OC[C@H]1O[C@H](O[C@H]2[C@H](O)[C@@H](O)C(O)O[C@@H]2CO)[C@H](O)[C@@H](O)[C@@H]1O (stereo partly shown) [maltose, Maltose] here?
**A.** little to no fluorescence change

**Q.** And the “fluorescence change in presence of non-specific ligand (maltose)” value [8]?
**A.** little to no fluorescence change

**Q.** What about the “fluorescence change in presence of non-specific ligand (maltose)” value ([3]; 20 μM maltose) of the same molecule?
**A.** little to no fluorescence change

**Q.** For O=C(O)C1=C[C@H](O)[C@@H](O)[C@@H](O[C@@H]2[C@H](O)[C@@H](O)C(O)O[C@@H]2C(=O)O)O1 (stereo partly shown) [unsatdigalUA, 4,5-unsaturated digalacturonic acid], which Kd [6] is on record?
**A.** 5 ± 1 µM

**Q.** And the Kd [7]?
**A.** 3.2 ± 0.1 µM
